Values quoted from earlier work as cited in paper PMC9095539 (Clinical Pharmacokinetics, 2022).

How the values were obtained:
[1] = BCS; no reference given
[2] = system: CYP2C9
[3] = system: CYP2C19
[4] = system: CYP2B6
[5] = system: CYP3A4

Permeability [1]: high | Contribution to hepatic metabolism [2]: 30% | Contribution to hepatic metabolism [3]: 53% | Contribution to hepatic metabolism [4]: 7% | Eliminated unchanged in urine: 1.0–4.4% | Time to steady-state plasma concentrations (once-daily dosing): ≤ 4 days | Time to reach maximum levels (oral, healthy individuals): ≤ 1.5 h | Contribution to hepatic metabolism [5]: 11%
SMILES: CCCS(=O)(=O)N[C@H]1C[C@@H](N(C)c2ncnc3[nH]ccc23)C1 [abrocitinib, N-{cis-3-[Methyl(7H-pyrrolo[2,3-d]pyrimidin-4-yl)amino]cyclobutyl}propane-1-sulfo namide]
